Test results as given in US12251382B2, “Substituted amino-pyrimidine compound for use in a method for treatment and prevention of multiple sclerosis” (Merck Patent GmbH, priority 2018, dated 2025).

Tests used:
[1] = Phase I Part 2 (multiple ascending dose study): safety and tolerability, TEAEs; assay type: in vivo, human
Method: The decision whether to initiate Part 2 of the study, as well as the MAD starting dose, was determined by the SMC based on review of safety data from Part 1, with PK and PD data also used to inform the decision. Dose-limiting criteria and termination/stopping rules were as per Part 1 of the study. […] Ultimately, dose levels of 25, 75, and 200 mg were selected.
Data were summarized using descriptive statistics.

[2] = system: BCR- and FcR-mediated signalling; conditions: variety of human cellular assays; cited from earlier work
[3] = Clinical trial of relative bioavailability of tablet vs powder-in-capsule incl. food effect in healthy volunteers; assay type: in vivo, human; conditions: oral administration in proximity in time to food (fed vs fasted)
[4] = Phase I Part 1: plasma pharmacokinetics after single oral dose; assay type: in vivo, human; conditions: for MRT / AUC0−∞ / Cmax / T1/2: geometric mean
Method: To test dose proportionality, PK parameters were analyzed graphically as AUC/dose and Cmax/dose and via a power model (PK parameter=α*dose^β) approach with log-transformed PK parameters as the dependent variable and log-transformed dose as the independent variable.

B cells = conditions: in vitro and ex vivo; cited from earlier work
[5] = Part 2, 25 mg once daily, 14 days
[6] = Part 2, 75 mg once daily, 14 days
[7] = Part 2, 200 mg once daily, 14 days
[8] = Part 2, pooled active, listed as evobrutinib

Compound: C=CC(=O)N1CCC(CNc2ncnc(N)c2-c2ccc(Oc3ccccc3)cc2)CC1 [Evobrutinib, 1-(4-(((6-amino-5-(4-phenoxyphenyl)pyrimidin-4-yl)amino)methyl)piperidin-1-yl)prop-2-en-1-one]
- Relation of gastrointestinal or other TEAEs to dose ([1]; Part 2): No relation to dose was observed
- Severity of TEAEs and dose-limiting adverse events ([1]; Part 2): mild and no dose-limiting adverse events were reported
- Abdominal discomfort, number of TEAEs [1, 5]: 1
- Abdominal discomfort, subjects [1, 5]: 1 (11.1) n (%)
- Abdominal pain, subjects [1, 5]: 0 (0.0) n (%)
- Application site irritation, subjects [1, 5]: 0 (0.0) n (%)
- Complex regional pain, number of TEAEs [1, 5]: 1
- Complex regional pain, subjects [1, 5]: 1 (11.1) n (%)
- Constipation, subjects [1, 5]: 0 (0.0) n (%)
- Dry throat, subjects [1, 5]: 0 (0.0) n (%)
- Excoriation, number of TEAEs [1, 5]: 1
- Excoriation, subjects [1, 5]: 1 (11.1) n (%)
- Fatigue, subjects [1, 5]: 0 (0.0) n (%)
- Headache, number of TEAEs [1, 5]: 1
- Headache, subjects [1, 5]: 1 (11.1) n (%)
- Muscle spasms, subjects [1, 5]: 0 (0.0) n (%)
- Muscle strain, number of TEAEs [1, 5]: 1
- Muscle strain, subjects [1, 5]: 1 (11.1) n (%)
- Nausea, subjects [1, 5]: 0 (0.0) n (%)
- Overall total TEAEs, subjects [1, 5]: 3 (33.3) n (%)
- Overall total, number of TEAEs [1, 5]: 6
- Rhinorrhea, number of TEAEs [1, 5]: 1
- Rhinorrhea, subjects [1, 5]: 1 (11.1) n (%)
- Sneezing, subjects [1, 5]: 0 (0.0) n (%)
- Toothache, subjects [1, 5]: 0 (0.0) n (%)
- Upper respiratory tract infection, subjects [1, 5]: 0 (0.0) n (%)
- Abdominal discomfort, subjects [1, 6]: 0 (0.0) n (%)
- Abdominal pain, number of TEAEs [1, 6]: 2
- Abdominal pain, subjects [1, 6]: 1 (11.1) n (%)
- Application site irritation, number of TEAEs [1, 6]: 1
- Application site irritation, subjects [1, 6]: 1 (11.1) n (%)
- Complex regional pain, subjects [1, 6]: 0 (0.0) n (%)
- Constipation, number of TEAEs [1, 6]: 1
- Constipation, subjects [1, 6]: 1 (11.1) n (%)
- Dry throat, number of TEAEs [1, 6]: 1
- Dry throat, subjects [1, 6]: 1 (11.1) n (%)
- Excoriation, subjects [1, 6]: 0 (0.0) n (%)
- Fatigue, number of TEAEs [1, 6]: 2
- Fatigue, subjects [1, 6]: 2 (22.2) n (%)
- Headache, number of TEAEs [1, 6]: 2
- Headache, subjects [1, 6]: 2 (22.2) n (%)
- Muscle spasms, number of TEAEs [1, 6]: 1
- Muscle spasms, subjects [1, 6]: 1 (11.1) n (%)
- Muscle strain, subjects [1, 6]: 0 (0.0) n (%)
- Nausea, number of TEAEs [1, 6]: 2
- Nausea, subjects [1, 6]: 1 (11.1) n (%)
- Overall total TEAEs, subjects [1, 6]: 7 (77.8) n (%)
- Overall total, number of TEAEs [1, 6]: 14
- Rhinorrhea, subjects [1, 6]: 0 (0.0) n (%)
- Sneezing, number of TEAEs [1, 6]: 1
- Sneezing, subjects [1, 6]: 1 (11.1) n (%)
- Toothache, subjects [1, 6]: 0 (0.0) n (%)
- Upper respiratory tract infection, number of TEAEs [1, 6]: 1
- Upper respiratory tract infection, subjects [1, 6]: 1 (11.1) n (%)
- Abdominal discomfort, subjects [1, 7]: 0 (0.0) n (%)
- Abdominal pain, subjects [1, 7]: 0 (0.0) n (%)
- Application site irritation, number of TEAEs [1, 7]: 1
- Application site irritation, subjects [1, 7]: 1 (11.1) n (%)
- Complex regional pain, subjects [1, 7]: 0 (0.0) n (%)
- Constipation, subjects [1, 7]: 0 (0.0) n (%)
- Dry throat, subjects [1, 7]: 0 (0.0) n (%)
- Excoriation, subjects [1, 7]: 0 (0.0) n (%)
- Fatigue, subjects [1, 7]: 0 (0.0) n (%)
- Headache, subjects [1, 7]: 0 (0.0) n (%)
- Muscle spasms, subjects [1, 7]: 0 (0.0) n (%)
- Muscle strain, subjects [1, 7]: 0 (0.0) n (%)
- Nausea, subjects [1, 7]: 0 (0.0) n (%)
- Overall total TEAEs, subjects [1, 7]: 3 (33.3) n (%)
- Overall total, number of TEAEs [1, 7]: 3
- Rhinorrhea, subjects [1, 7]: 0 (0.0) n (%)
- Sneezing, subjects [1, 7]: 0 (0.0) n (%)
- Toothache, number of TEAEs [1, 7]: 1
- Toothache, subjects [1, 7]: 1 (11.1) n (%)
- Upper respiratory tract infection, number of TEAEs [1, 7]: 1
- Upper respiratory tract infection, subjects [1, 7]: 1 (11.1) n (%)
- Number of gastrointestinal TEAEs ([1]; Part 2, all evobrutinib doses): Seven
- Subjects with fatigue ([1]; Part 2, all evobrutinib doses): 7.4%
- Subjects with gastrointestinal TEAEs ([1]; Part 2, all evobrutinib doses): 18.5%
- Subjects with headache ([1]; Part 2, all evobrutinib doses): 11.1%
- Subjects with skin irritation due to ECG pads ([1]; Part 2, all evobrutinib doses): 7.4%
- Subjects with upper respiratory tract infection ([1]; Part 2, all evobrutinib doses): 7.4%
- Subjects with TEAEs ([1]; Part 2, multiple dosing, all evobrutinib doses): 48.1%
- Abdominal discomfort, number of TEAEs ([1]; Part 2, pooled active): 1
- Abdominal discomfort, subjects ([1]; Part 2, pooled active): 1 (3.7) n (%)
- Abdominal pain, number of TEAEs ([1]; Part 2, pooled active): 2
- Abdominal pain, subjects ([1]; Part 2, pooled active): 1 (3.7) n (%)
- Application site irritation, number of TEAEs ([1]; Part 2, pooled active): 2
- Application site irritation, subjects ([1]; Part 2, pooled active): 2 (7.4) n (%)
- Complex regional pain, number of TEAEs ([1]; Part 2, pooled active): 1
- Complex regional pain, subjects ([1]; Part 2, pooled active): 1 (3.7) n (%)
- Constipation, number of TEAEs ([1]; Part 2, pooled active): 1
- Constipation, subjects ([1]; Part 2, pooled active): 1 (3.7) n (%)
- Dry throat, number of TEAEs ([1]; Part 2, pooled active): 1
- Dry throat, subjects ([1]; Part 2, pooled active): 1 (3.7) n (%)
- Excoriation, number of TEAEs ([1]; Part 2, pooled active): 1
- Excoriation, subjects ([1]; Part 2, pooled active): 1 (3.7) n (%)
- Fatigue, number of TEAEs ([1]; Part 2, pooled active): 2
- Fatigue, subjects ([1]; Part 2, pooled active): 2 (7.4) n (%)
- Headache, number of TEAEs ([1]; Part 2, pooled active): 3
- Headache, subjects ([1]; Part 2, pooled active): 3 (11.1) n (%)
- Muscle spasms, number of TEAEs ([1]; Part 2, pooled active): 1
- Muscle spasms, subjects ([1]; Part 2, pooled active): 1 (3.7) n (%)
- Muscle strain, number of TEAEs ([1]; Part 2, pooled active): 1
- Muscle strain, subjects ([1]; Part 2, pooled active): 1 (3.7) n (%)
- Nausea, number of TEAEs ([1]; Part 2, pooled active): 2
- Nausea, subjects ([1]; Part 2, pooled active): 1 (3.7) n (%)
- Overall total TEAEs, subjects ([1]; Part 2, pooled active): 13 (48.1) n (%)
- Overall total, number of TEAEs ([1]; Part 2, pooled active): 23
- Rhinorrhea, number of TEAEs ([1]; Part 2, pooled active): 1
- Rhinorrhea, subjects ([1]; Part 2, pooled active): 1 (3.7) n (%)
- Sneezing, number of TEAEs ([1]; Part 2, pooled active): 1
- Sneezing, subjects ([1]; Part 2, pooled active): 1 (3.7) n (%)
- Toothache, number of TEAEs ([1]; Part 2, pooled active): 1
- Toothache, subjects ([1]; Part 2, pooled active): 1 (3.7) n (%)
- Upper respiratory tract infection, number of TEAEs ([1]; Part 2, pooled active): 2
- Upper respiratory tract infection, subjects ([1]; Part 2, pooled active): 2 (7.4) n (%)
- Application site irritation, number of TEAEs [1, 8]: two
- Fatigue, number of TEAEs [1, 8]: two
- Headache, number of TEAEs [1, 8]: three
- Upper respiratory tract infection, number of TEAEs [1, 8]: two
- BCR- and FcR-mediated signalling [2]: potently inhibit
- Effect of food on bioavailability [3]: significant increase in the bioavailability
- Time after dosing up to which concentrations above LLOQ were measurable ([4]; 350 and 500 mg, some (n=3) subjects): up to 48 h
- Vd/F ([4]; both sexes, human, plasma, oral, all doses, read-out: Relevant Vz/F): ~650 L
- MRT ([4]; human, plasma, oral, single dose 25 mg): 1.82 h
- MRT ([4]; human, plasma, oral, single dose 50 mg): 1.82 h
- MRT ([4]; human, plasma, oral, single dose 100 mg): 1.7 h
- MRT ([4]; human, plasma, oral, single dose 200 mg): 1.8 h
- MRT ([4]; human, plasma, oral, single dose 350 mg): 2.26 h
- MRT ([4]; human, plasma, oral, single dose 500 mg): 2.19 h
- PK profile in words (clearance, Vz/f, t1/2) ([4]; humans): moderate-to-high plasma clearance, medium Vz/f, and short t1/2
- Apparent clearance (CL/F) ([4]; range across single doses): 2,553-3,995 mL/min
- AUC0−∞ ([4]; single dose 25 mg): 104 ng·h/mL
- Cmax ([4]; single dose 25 mg): 69.9 ng/mL
- T1/2 ([4]; single dose 25 mg): 1.80 h
- AUC0−∞ ([4]; single dose 50 mg): 326 ng·h/mL
- Cmax ([4]; single dose 50 mg): 234 ng/mL
- T1/2 ([4]; single dose 50 mg): 2.06 h
- AUC0−∞ ([4]; single dose 100 mg): 434 ng·h/mL
- Cmax ([4]; single dose 100 mg): 309 ng/mL
- T1/2 ([4]; single dose 100 mg): 2.56 h
- AUC0−∞ ([4]; single dose 200 mg): 856 ng·h/mL
- Cmax ([4]; single dose 200 mg): 555 ng/mL
- T1/2 ([4]; single dose 200 mg): 2.09 h
- AUC0−∞ ([4]; single dose 350 mg): 1,910 ng * h/mL
- Cmax ([4]; single dose 350 mg): 846 ng/mL
- T1/2 ([4]; single dose 350 mg): 6.81 h
- AUC0−∞ ([4]; single dose 500 mg): 3,220 ng * h/mL
- Cmax ([4]; single dose 500 mg): 1510 ng/mL
- T1/2 ([4]; single dose 500 mg): 6.63 h
- Apparent geometric mean terminal half-life (t1/2) ([4]; single doses 25-200 mg): 1.8 to 2.6 h
- Apparent geometric mean terminal half-life (t1/2) ([4]; single doses 350 and 500 mg): 6.6 to 6.8 h
- Plasma concentration remaining after Cmax ([4]; within 8 h, dose-independent): less than 1 % of Cmax
- Relevant t1/2 ([4]; within the first 8 h, all doses): ~2 h
- B-cell activation and maturation (B cells): inhibits B-cell activation and maturation from naïve to antigen-activated B cells
